# Laboratory results taken from PMC7108740, “Exploring the molecular structures that confer ligand selectivity for galanin type II and III receptors” (PLoS ONE, 2020).
# Ends that are not written are not given here.
# Legend:
# Type in all cases: cell-based
# [1] = biological target: T1, GALR3 single mutant V^186I (Homo sapiens, UniProt O60755, V186I); assay: SRE-luc luciferase assay, GALR3 V186I; conditions: GALR3 V^186I; SRE-luc in HEK293 Gqi cells, ligand 6 h; mean ± S.E.; SEM
# T1 construct: expressed in transfected cells; host or cells: HEK293 cells stably expressing Gqi
# Text: (§1) For domain swapping between GALR2 and GALR3, individual cDNA fragments of interest were amplified by polymerase chain reaction (PCR) with Pfu polymerase (ELPIS Biotech, Daejeon, Korea) and two specific primers, one corresponding to the 5' or 3' end of the GALR2 or GALR3 cDNA and the other to the region of overlap between the two receptors. The two resulting fragments, one from GALR2 and the other from GALR3, were subjected to a second round of PCR to generate the chimeric cDNAs. To construct single, double-, triple-, pentuple-, hextuple-, and septuple-mutant receptors, amino acids of GALR3 were substituted for the amino acids at the corresponding positions in GALR2 using PCR-based site-directed mutagenesis. All of the chimeric constructs were cloned into the pcDNA3 expression vector at HindⅢ and XbaⅠ sites. The DNA sequences of the chimeras were verified by automatic sequencing. […] The luciferase activity in 50 μl cell extract was determined using a luciferase assay system according to the standard protocol for the Synergy 2 Multi-Mode Microplate Reader (BioTek, Winooski, VT, USA). […] The concentrations of agonists that induced half-maximal stimulation (EC50) were calculated using the GraphPad PRISM5 software (GraphPad software, Inc., San Diego, CA). […]
# [2] = biological target: T2, GALR3 single mutant A^187C (Homo sapiens, UniProt O60755, A187C); assay: SRE-luc luciferase assay, GALR3 A187C; conditions: GALR3 A^187C; SRE-luc in HEK293 Gqi cells, ligand 6 h; mean ± S.E.; SEM
# T2 construct: expressed in transfected cells; host or cells: HEK293 cells stably expressing Gqi
# Text: as §1
# [3] = biological target: T3, GALR3 single mutant A^190V (Homo sapiens, UniProt O60755, A190V); assay: SRE-luc luciferase assay, GALR3 A190V; conditions: GALR3 A^190V; SRE-luc in HEK293 Gqi cells, ligand 6 h; mean ± S.E.; SEM
# T3 construct: expressed in transfected cells; host or cells: HEK293 cells stably expressing Gqi
# Text: as §1
# [4] = biological target: T4, GALR3 single mutant A^191F (Homo sapiens, UniProt O60755, A191F); assay: SRE-luc luciferase assay, GALR3 A191F; conditions: GALR3 A^191F; SRE-luc in HEK293 Gqi cells, ligand 6 h; mean ± S.E.; SEM
# T4 construct: expressed in transfected cells; host or cells: HEK293 cells stably expressing Gqi
# Text: as §1
# [5] = biological target: T5, GALR3 single mutant G^192S (Homo sapiens, UniProt O60755, G192S); assay: SRE-luc luciferase assay, GALR3 G192S; conditions: GALR3 G^192S; SRE-luc in HEK293 Gqi cells, ligand 6 h; mean ± S.E.; SEM
# T5 construct: expressed in transfected cells; host or cells: HEK293 cells stably expressing Gqi
# Text: as §1
# [6] = biological target: T6, GALR3 mutant L^184M,V^186I,A^187C (Homo sapiens, UniProt O60755, A187C/L184M/V186I); assay: SRE-luc luciferase assay, GALR3 L184M,V186I,A187C; conditions: GALR3 L^184M,V^186I,A^187C; SRE-luc in HEK293 Gqi cells, ligand 6 h; mean ± S.E.; SEM
# T6 construct: expressed in transfected cells; host or cells: HEK293 cells stably expressing Gqi
# Text: as §1
# [7] = biological target: T7, GALR3 mutant A^190V,A^191F,G^192S (Homo sapiens, UniProt O60755, A190V/A191F/G192S); assay: SRE-luc luciferase assay, GALR3 A190V,A191F,G192S; conditions: GALR3 A^190V,A^191F,G^192S; SRE-luc in HEK293 Gqi cells, ligand 6 h; mean ± S.E.; SEM
# T7 construct: expressed in transfected cells; host or cells: HEK293 cells stably expressing Gqi
# Text: as §1
# [8] = biological target: T8, GALR3 mutant L^184M,V^186I,A^187C, A^190V,A^191F (Homo sapiens, UniProt O60755, A187C/A190V/A191F/L184M/V186I); assay: SRE-luc luciferase assay, GALR3 pentuple mutant (A191F); conditions: GALR3 L^184M,V^186I,A^187C, SRE-luc in HEK293 Gqi cells, ligand 6 h, mean ± S.E., SEM
# T8 construct: expressed in transfected cells; host or cells: HEK293 cells stably expressing Gqi
# Text: as §1
# [9] = biological target: T9, GALR3 mutant L^184M,V^186I,A^187C, A^190V,A^191F,G^192S (Homo sapiens, UniProt O60755, A187C/A190V/A191F/G192S/L184M/V186I); assay: SRE-luc luciferase assay, GALR3 hextuple mutant; conditions: GALR3 L^184M,V^186I,A^187C, SRE-luc in HEK293 Gqi cells, ligand 6 h, mean ± S.E., SEM
# T9 construct: expressed in transfected cells; host or cells: HEK293 cells stably expressing Gqi
# Text: as §1
# [10] = biological target: T10, GALR3 single mutant A^264P (Homo sapiens, UniProt O60755, A264P); assay: SRE-luc luciferase assay, GALR3 A264P; conditions: GALR3 A^264P; SRE-luc in HEK293 Gqi cells, ligand 6 h; mean ± S.E.; SEM
# T10 construct: expressed in transfected cells; host or cells: HEK293 cells stably expressing Gqi
# Text: as §1
# [11] = biological target: T11, GALR3 single mutant S^266T (Homo sapiens, UniProt O60755, S266T); assay: SRE-luc luciferase assay, GALR3 S266T; conditions: GALR3 S^266T; SRE-luc in HEK293 Gqi cells, ligand 6 h; mean ± S.E.; SEM
# T11 construct: expressed in transfected cells; host or cells: HEK293 cells stably expressing Gqi
# Text: as §1
# T1 sequence (O60755 whole entry V186I): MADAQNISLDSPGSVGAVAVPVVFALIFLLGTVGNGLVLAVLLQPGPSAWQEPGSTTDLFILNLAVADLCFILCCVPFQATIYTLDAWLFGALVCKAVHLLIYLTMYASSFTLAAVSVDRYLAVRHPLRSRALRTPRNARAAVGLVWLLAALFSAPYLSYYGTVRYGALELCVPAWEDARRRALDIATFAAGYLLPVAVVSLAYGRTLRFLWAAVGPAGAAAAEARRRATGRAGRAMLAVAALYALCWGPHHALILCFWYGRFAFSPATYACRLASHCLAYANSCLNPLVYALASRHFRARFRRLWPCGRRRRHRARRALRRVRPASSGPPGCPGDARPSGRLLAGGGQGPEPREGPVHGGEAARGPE
# T3 sequence (O60755 whole entry A190V): as the sequence (O60755 whole entry V186I) above, with I186V, A190V counted along it
# T8 sequence (O60755 whole entry L184M/V186I/A187C/A190V/A191F): as the sequence (O60755 whole entry V186I) above, with L184M, A187C, A190V, A191F counted along it
# T5 sequence (O60755 whole entry G192S): as the sequence (O60755 whole entry V186I) above, with I186V, G192S counted along it
# T6 sequence (O60755 whole entry L184M/V186I/A187C): as the sequence (O60755 whole entry V186I) above, with L184M, A187C counted along it
# T2 sequence (O60755 whole entry A187C): as the sequence (O60755 whole entry V186I) above, with I186V, A187C counted along it
# T7 sequence (O60755 whole entry A190V/A191F/G192S): as the sequence (O60755 whole entry V186I) above, with I186V, A190V, A191F, G192S counted along it
# T9 sequence (O60755 whole entry L184M/V186I/A187C/A190V/A191F/G192S): as the sequence (O60755 whole entry V186I) above, with L184M, A187C, A190V, A191F, G192S counted along it
# T10 sequence (O60755 whole entry A264P): as the sequence (O60755 whole entry V186I) above, with I186V, A264P counted along it
# T4 sequence (O60755 whole entry A191F): as the sequence (O60755 whole entry V186I) above, with I186V, A191F counted along it
# T11 sequence (O60755 whole entry S266T): as the sequence (O60755 whole entry V186I) above, with I186V, S266T counted along it
EC50 [1] [nM],EC50 [2] [nM],EC50 [3] [nM],EC50 [4] [nM],EC50 [5] [nM],EC50 [6] [nM],EC50 [7] [nM],EC50 [8] [nM],EC50 [9] [nM],EC50 [10] [nM],EC50 [11] [nM],Compound
141 ± 45.8,115 ± 27.7,77.6 ± 18.7,91.2 ± 31,35.5 ± 12.6,115 ± 2.61,33.9 ± 11,50.1 ± 16.2,25.7 ± 7.92,274 ± 76,38 ± 10.5,"CSCC[C@H](NC(=O)[C@H](C)NC(=O)[C@H](CCC(N)=O)NC(=O)[C@@H]1CCCN1C(=O)[C@@H](NC(=O)[C@H](Cc1c[nH]c2ccccc12)NC(=O)[C@@H](N)CC(N)=O)[C@@H](C)O)C(=O)N[C@@H](CC(C)C)C(=O)N[C@@H](Cc1ccc(O)cc1)C(=O)N[C@@H](CC(C)C)C(=O)N[C@@H](CCCCN)C(=O)NCC(=O)N[C@@H](C)C(=O)N[C@@H](CCC(N)=O)C(N)=O [SPX, reference compound]"
513 ± 158,550 ± 151,468 ± 105,,355 ± 109,457 ± 118,123 ± 39.8,141 ± 36.5,112 ± 25.1,,,NWTPQAMLYLKGPQ-NH2 [P^13-SPX]
